A short description of data set [1]: In vitro plasma protein binding. Format: in vitro ADME.
The subject of data set [2] is rat formalin model of pain. The data set can be described thus: Formalin test (formalin-induced flinching). In kind it is in vivo. The conditions noted are these: for Decrease in formalin flinching: phase 2 (10 to 40 min), percent of vehicle; for Analgesic efficacy: rat formalin model, significant (p < 0.05) decrease in flinching at a dose without a reduction in open field movement that obviated the result; for Reduction in formalin flinching, result in words: rat formalin test. The method, then: Formalin-induced flinching was measured using the Automated Nociception Analyzer (ANA) (University Anesthesia Research & Development Group, La Jolla, CA). Rats were habituated to the ANA testing chambers for at least 30 minutes prior to the formalin injection. At test time, each rat was removed from the testing chamber and gently wrapped in a towel. 50 μL of 2.5% formalin solution was injected into the dorsal surface of the left hind paw with a 30 gauge needle. A small metal band was then affixed to the plantar side of the injected paw with one drop of super glue. The animal was then unwrapped from the towel, placed back in the testing chamber, and flinching behavior was scored for 40 minutes by the ANA software. While minimized, non-painful paw movement from the natural activity of an alert animal could be erroneously binned by the automated recording system as a nociceptive behavior. These behaviors are not subtracted from the flinching total. […] Total flinching behavior was used as the endpoint of the assay.

Data set [3] can be described thus: Terminal plasma and brain concentrations after behavioral testing. Format: in vivo, rat. Particulars: for Kp: brain and plasma, ratio of concentrations measured following the formalin test; for Effective [plasma]: mean terminal plasma concentration at the lowest effective dose in the rat formalin test; for concentration at 160 min / Terminal plasma concentration: mean; for concentration at 160 min: n = 4; for Terminal plasma concentration: n = 8.

Data set [4] concerns naïve rats. The data set can be described thus: Open field activity (basic movement). In kind it is in vivo, rat. Particulars: formalin-naïve rats. The method, then:
Basic movement was measured using the Photobeam Activity System Open Field (San Diego Instruments, San Diego, CA) equipped with 48 infrared photocell emitters and detectors. Photobeams used to measure vertical movement were positioned 14 cm above the test chamber floor. Each testing chamber was made of Plexiglas (41 x 41 x 36 cm) and was devoid of any bedding. At the beginning of the test session, each animal was placed in a separate testing chamber and the room lights were turned off. Basic movement was measured for 30 minutes.

The target of data set [5] is T1, hNav1.7 (Homo sapiens, UniProt Q15858).
T1 construct: expressed in transfected cells; host or cells: HEK 293
T1 sequence (Q15858 whole entry): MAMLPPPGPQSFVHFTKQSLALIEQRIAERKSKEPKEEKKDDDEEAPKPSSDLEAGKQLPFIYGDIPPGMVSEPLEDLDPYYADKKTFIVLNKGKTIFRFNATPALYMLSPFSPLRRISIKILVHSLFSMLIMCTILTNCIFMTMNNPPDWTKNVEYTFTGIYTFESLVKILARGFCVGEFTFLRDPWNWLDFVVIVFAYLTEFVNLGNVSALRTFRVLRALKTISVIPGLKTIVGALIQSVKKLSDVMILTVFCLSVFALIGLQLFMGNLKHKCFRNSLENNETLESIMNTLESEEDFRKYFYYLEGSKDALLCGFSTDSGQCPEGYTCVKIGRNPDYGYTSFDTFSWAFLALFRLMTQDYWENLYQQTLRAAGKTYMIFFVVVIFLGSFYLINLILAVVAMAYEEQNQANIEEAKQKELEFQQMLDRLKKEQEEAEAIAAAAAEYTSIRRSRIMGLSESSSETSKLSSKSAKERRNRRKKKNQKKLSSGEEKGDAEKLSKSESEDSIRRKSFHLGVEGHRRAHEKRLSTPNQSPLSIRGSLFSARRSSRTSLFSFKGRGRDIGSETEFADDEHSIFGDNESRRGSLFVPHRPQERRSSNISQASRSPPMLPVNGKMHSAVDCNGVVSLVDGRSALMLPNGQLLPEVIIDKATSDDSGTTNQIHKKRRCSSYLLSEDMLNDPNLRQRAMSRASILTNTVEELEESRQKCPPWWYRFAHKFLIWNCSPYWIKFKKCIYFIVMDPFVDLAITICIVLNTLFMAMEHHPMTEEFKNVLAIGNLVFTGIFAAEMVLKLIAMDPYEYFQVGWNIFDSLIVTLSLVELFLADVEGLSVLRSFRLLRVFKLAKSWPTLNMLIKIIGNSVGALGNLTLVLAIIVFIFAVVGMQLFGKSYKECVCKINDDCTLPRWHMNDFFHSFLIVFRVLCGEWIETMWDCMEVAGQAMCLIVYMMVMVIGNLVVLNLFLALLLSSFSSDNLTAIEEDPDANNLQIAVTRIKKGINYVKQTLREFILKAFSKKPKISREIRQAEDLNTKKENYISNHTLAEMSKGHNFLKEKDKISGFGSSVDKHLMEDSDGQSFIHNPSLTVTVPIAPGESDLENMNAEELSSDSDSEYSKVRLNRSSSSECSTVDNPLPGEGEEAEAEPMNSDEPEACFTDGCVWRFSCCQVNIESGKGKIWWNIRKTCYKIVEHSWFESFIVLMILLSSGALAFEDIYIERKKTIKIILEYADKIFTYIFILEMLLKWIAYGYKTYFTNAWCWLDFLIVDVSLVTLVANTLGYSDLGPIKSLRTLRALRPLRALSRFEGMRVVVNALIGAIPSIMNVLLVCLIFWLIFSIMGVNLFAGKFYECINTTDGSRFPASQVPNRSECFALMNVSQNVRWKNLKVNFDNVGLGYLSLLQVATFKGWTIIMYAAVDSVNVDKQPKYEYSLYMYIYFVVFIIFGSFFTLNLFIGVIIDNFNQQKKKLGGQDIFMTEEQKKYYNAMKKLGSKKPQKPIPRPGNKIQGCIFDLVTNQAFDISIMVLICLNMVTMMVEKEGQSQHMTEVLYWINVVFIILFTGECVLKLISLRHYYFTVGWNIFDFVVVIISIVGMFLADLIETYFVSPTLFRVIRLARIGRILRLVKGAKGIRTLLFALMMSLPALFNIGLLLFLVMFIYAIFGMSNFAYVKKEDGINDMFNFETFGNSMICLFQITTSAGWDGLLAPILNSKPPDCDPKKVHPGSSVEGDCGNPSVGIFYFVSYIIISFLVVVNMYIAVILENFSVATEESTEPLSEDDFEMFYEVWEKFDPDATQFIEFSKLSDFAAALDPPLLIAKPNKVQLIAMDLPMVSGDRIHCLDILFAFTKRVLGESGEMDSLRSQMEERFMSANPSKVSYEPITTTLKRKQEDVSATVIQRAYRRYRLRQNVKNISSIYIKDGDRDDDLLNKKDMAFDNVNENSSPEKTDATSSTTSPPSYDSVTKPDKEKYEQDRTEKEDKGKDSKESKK
The data set can be described thus: Manual whole cell patch clamp electrophysiology on HEK 293 cells stably expressing hNav1.7. In kind it is cell-based. On the procedure:
Except as indicated, recordings to determine potency of aminotriazines on Nav1.7 were made with manual electrophysiology. HEK 293 cells stably expressing hNav1.7 were voltage-clamped using the whole cell patch clamp configuration. Cells were plated onto 35 mm culture dishes 0–24 hours before recording, and tissue culture medium was exchanged for external solution containing (in mM) 140 NaCl, 5 KCl, 2 CaCl2, 1 MgCl2, 10 HEPES, 11 glucose, pH 7.4 with NaOH. Patch pipettes were pulled from borosilicate glass capillaries (1.2 mm outer diameter, World Precision Instruments, Sarasota, FL) with a P-97 pipette puller (Sutter Instruments, Novato, CA) and backfilled with internal solution containing (in mM) 62.5 CsCl, 75 CsF, 2.5 MgCl2, 5 EGTA, 10 HEPES, pH 7.25 with CsOH. Pipette resistances were between 1.5 and 2.0 MΩ. After formation of the whole-cell configuration, cells were lifted off the dish bottom with the patch pipette and positioned directly in front of a microarray of glass tubes (each tube internal diameter ~ 1 mm) with each tube containing continuously flowing control or test solution. A full current-voltage relation was recorded from each cell, and cells with poor space clamp as indicated by discontinuous I-V relation or by prolonged or nonexponential current kinetics were discarded. Solution switching was accomplished by moving the microarray with computer control via an RSC-160 rapid solution exchanger (Bio-Logic, Claix, France). Currents were recorded with an Axopatch 200B patch-clamp amplifier driven by pCLAMP software, filtered (4-pole Bessel) at 5 kHz during acquisition, and digitized at 20 kHz using pClamp9.2. Whole cell capacitance and series resistance were compensated at 0%- 80%, and reported voltages were uncorrected for liquid junction potentials. Recordings were made at room temperature. Concentration-response curves were taken by measuring inward Nav1.7 current every five to six seconds with a 10 ms to 20 ms depolarization to near the peak of the current-voltage relation, before and after steady-state inhibition by a given concentration of aminotriazine. For concentration response curves on partially inactivated channels, holding voltage was set to produce 20% fractional inactivation. […] Occasionally two compound concentrations were tested in parallel without resetting the voltage, if inhibition was rapid and the current level steady. […] Concentration response curves on non-inactivated channels generally were taken with multiple concentrations added in series without washoff of the previous concentration.

Data set [6] concerns the target rat Nav1.7 (Rattus norvegicus, UniProt O08562). The data set can be described thus: PatchXpress automated electrophysiology on rat Nav1.7. In kind it is cell-based. Particulars: 20%-inactivated rat Nav1.7.
The mark [7] stands for this setting: 10 mg/kg p.o., negative value = increase.
[8] abbreviates: IC50 (μM) 20%-inactivated, 20%-inactivated human Nav1.7, holding voltage set to produce 20% fractional inactivation.
[9] abbreviates: non-inactivated human Nav1.7, holding voltage -140 mV or occasionally -120 mV, peak concentration tested 10 μM, read-out: IC50 (μM) Non-inactivated.
[10] abbreviates: 30 mg/kg p.o., listed as compound A.
Where [11] appears, read: 60 mg/kg p.o., listed as compound A.

Experimental findings from PMC4575030 (PLoS ONE, 2015) are described below.

Several values for one entry are separate records, joined by “and”; a condition that tells them apart may be missing. Identical values can stand only once. Like-named read-outs stand apart in the source and are kept apart here.

Chain of rat Nav1.7 (O08562 whole entry): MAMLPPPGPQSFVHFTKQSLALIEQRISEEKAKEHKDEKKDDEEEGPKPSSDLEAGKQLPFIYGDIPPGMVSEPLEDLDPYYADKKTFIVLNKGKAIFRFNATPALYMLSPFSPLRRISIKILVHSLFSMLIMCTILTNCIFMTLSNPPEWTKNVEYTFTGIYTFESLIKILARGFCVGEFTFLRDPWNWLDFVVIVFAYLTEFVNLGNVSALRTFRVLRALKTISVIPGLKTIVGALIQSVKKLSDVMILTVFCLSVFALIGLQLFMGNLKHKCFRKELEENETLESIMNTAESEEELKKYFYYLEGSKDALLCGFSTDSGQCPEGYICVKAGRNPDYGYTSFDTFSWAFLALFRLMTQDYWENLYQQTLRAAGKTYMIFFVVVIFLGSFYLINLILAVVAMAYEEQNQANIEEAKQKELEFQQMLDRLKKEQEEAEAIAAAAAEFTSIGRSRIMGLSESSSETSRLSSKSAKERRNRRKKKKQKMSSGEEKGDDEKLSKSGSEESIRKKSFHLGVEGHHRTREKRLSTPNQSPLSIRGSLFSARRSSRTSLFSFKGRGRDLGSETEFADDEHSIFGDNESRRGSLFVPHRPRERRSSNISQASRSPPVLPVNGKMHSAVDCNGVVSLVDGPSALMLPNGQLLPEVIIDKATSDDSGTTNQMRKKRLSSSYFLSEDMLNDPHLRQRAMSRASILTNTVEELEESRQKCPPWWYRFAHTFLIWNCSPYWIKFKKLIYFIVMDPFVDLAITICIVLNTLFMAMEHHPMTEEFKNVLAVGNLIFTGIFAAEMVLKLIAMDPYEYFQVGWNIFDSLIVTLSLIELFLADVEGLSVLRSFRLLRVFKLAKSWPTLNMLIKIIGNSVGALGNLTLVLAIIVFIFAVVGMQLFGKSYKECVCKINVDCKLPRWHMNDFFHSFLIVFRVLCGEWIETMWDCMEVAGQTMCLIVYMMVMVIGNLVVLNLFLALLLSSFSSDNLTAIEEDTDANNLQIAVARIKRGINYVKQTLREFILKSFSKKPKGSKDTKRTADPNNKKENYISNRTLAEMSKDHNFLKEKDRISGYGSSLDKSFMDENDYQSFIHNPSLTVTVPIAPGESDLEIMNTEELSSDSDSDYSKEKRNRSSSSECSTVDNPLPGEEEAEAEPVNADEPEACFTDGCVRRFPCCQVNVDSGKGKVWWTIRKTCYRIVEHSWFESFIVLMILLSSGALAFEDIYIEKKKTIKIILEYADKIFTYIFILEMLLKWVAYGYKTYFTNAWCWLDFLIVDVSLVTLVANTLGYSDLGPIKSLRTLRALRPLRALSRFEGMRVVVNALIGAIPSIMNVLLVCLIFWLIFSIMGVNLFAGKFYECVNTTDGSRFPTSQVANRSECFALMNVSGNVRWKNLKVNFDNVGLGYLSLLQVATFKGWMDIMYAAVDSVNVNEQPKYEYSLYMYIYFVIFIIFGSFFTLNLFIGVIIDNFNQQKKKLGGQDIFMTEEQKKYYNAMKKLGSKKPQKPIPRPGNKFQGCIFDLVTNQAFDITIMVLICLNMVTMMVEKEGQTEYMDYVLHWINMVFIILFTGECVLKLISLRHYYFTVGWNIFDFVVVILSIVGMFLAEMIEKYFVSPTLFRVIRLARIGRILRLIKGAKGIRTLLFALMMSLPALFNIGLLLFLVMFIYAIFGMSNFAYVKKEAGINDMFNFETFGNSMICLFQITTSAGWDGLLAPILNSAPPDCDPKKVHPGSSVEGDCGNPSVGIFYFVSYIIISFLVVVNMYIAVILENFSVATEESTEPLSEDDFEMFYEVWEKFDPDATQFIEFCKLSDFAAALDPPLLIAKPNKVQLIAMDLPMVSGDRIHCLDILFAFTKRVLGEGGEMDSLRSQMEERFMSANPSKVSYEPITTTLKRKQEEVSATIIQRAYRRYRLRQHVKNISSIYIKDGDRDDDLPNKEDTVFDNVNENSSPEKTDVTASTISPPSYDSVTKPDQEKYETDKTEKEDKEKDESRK

With `CC(=O)Nc1cccc(Nc2ncnc(N3CCc4cc(OC(F)(F)F)ccc4C3)n2)c1` [Compound F, N-(3-((4-(6-(trifluoromethoxy)-3,4-dihydro-2(1H)-isoquinolinyl)-1,3,5-triazin-2-yl)amino)phenyl)acetamide], the free fraction (fraction unbound) (in general, free concentration divided by total concentration) in data set [1] was 0.001. The results for the “Decrease in formalin flinching” value in data set [2] (10 mg/kg p.o.), in data set [2] (30 mg/kg p.o.) and in data set [2] (100 mg/kg p.o.) were 0%, 35% and 67%, respectively. The Analgesic efficacy result in data set [2] was “Yes”. Besides, the “Reduction in formalin flinching, result in words” value (shortened to “Reduction in formalin flinching”) in data set [2] is “statistically significant and plasma concentration-dependent reduction in formalin flinching”. Also, the concentration ratio (Kp) (as a rule, the ratio of the level in a tissue or fluid to that in plasma or blood) in data set [3] (rat) was determined as 0.33. Moreover, the “Effective [plasma]” value in data set [3] is 3.70 µM. For the same compound, the figures for the “Decrease in basic movement” value in data set [4] (setting [7]), in data set [4] (30 mg/kg p.o.) and in data set [4] (100 mg/kg p.o.) were 11%, 33% and 54%, respectively. For the same compound, the values for the IC50 in data set [5] (setting [8]), in data set [5] (setting [9]) and in data set [6] were 0.18 µM, more than 10 µM and 1000 nM, respectively.

In turn, `CC(=O)Nc1cccc(Nc2ncnc(N3CCC(Oc4ccc(Cl)cc4)CC3)n2)c1C` [Compound A, N-(3-((4-(4-(4-chlorophenoxy)-1-piperidinyl)-1,3,5-triazin-2-yl)amino)-2-methylphenyl)acetamide] gave a fraction unbound in data set [1] of 0.013. The “Decrease in formalin flinching” value was 31.4% and 32% in data set [2] (10 mg/kg p.o.); 32% in data set [2] (10 mg/kg p.o., listed as compound A); 66.1% and 66% in data set [2] (30 mg/kg p.o.); 66% in data set [2] (setting [10]); 85% in data set [2] (60 mg/kg p.o.); 85% and 84.6% in data set [2] (setting [11]). Further, the Analgesic efficacy result in data set [2] was “Yes”. Moreover, in data set [3] (rat), the partition ratio (Kp) came to 0.1. The concentration at 160 min is 280 nM in data set [3] (formalin test, 10 mg/kg p.o.); 880 nM in data set [3] (formalin test, 30 mg/kg p.o.); 1540 nM in data set [3] (rat, brain, po, formalin test, 60 mg/kg p.o.). The Terminal plasma concentration in data set [3] (formalin test, 10 mg/kg p.o.) was determined as 3.02 µM; in data set [3] (formalin test, 30 mg/kg p.o.), 8.07 µM; in data set [3] (formalin test, 60 mg/kg p.o.), 13.5 µM; in data set [3] (open field test, 10 mg/kg p.o.), 2.75 µM; in data set [3] (open field test, 30 mg/kg p.o.) it was 5.53 µM; in data set [3] (open field test, 60 mg/kg p.o.) it was 13.0 µM. Further, in data set [3], the “Effective [plasma]” value was determined as 3.02 µM. Moreover, the “Decrease in basic movement” value was -4.2% in data set [4] (setting [7]); 13.5% and 14% in data set [4] (30 mg/kg p.o.); 14% in data set [4] (setting [10]); 46% in data set [4] (60 mg/kg p.o.); 46% in data set [4] (setting [11]). Moreover, the half-inhibitory concentration (IC50) (commonly the midpoint of a concentration-inhibition curve) in data set [5] (setting [8]) is 0.19 µM; in data set [5] (setting [9]), more than 10 µM; in data set [6] it was 520 nM.

Consider `CN1C(=O)CN=C(c2ccccc2)c2cc(Cl)ccc21` [Diazepam, diazepam, reference compound], for which the “Reduction in formalin-induced flinching” value in data set [2] (diazepam 10 mg/kg, lowest dose with statistically significant reduction) stood at 22%.

In data set [1], `CC(=O)Nc1cccc(Nc2ncnc(N3CC(Oc4ccc(F)cc4)C3)n2)c1C` [Compound C, N-(3-((4-(3-(4-fluorophenoxy)-1-azetidinyl)-1,3,5-triazin-2-yl)amino)-2-methylphenyl)acetamide] showed an unbound share (fraction unbound) of 0.164. The “Decrease in formalin flinching” value in data set [2] (3 mg/kg p.o.) came out at 14%; in data set [2] (10 mg/kg p.o.), 35%; in data set [2] (30 mg/kg p.o.) it was 53%. For the same compound, the Analgesic efficacy result in data set [2] was “Yes”. Besides, in data set [2], the “Reduction in formalin flinching” value is “statistically significant and plasma concentration-dependent reduction in formalin flinching”. The Kp in data set [3] (rat) turned out to be 0.03. For the same compound, the “Effective [plasma]” value in data set [3] is 3.68 µM. In addition, the “Decrease in basic movement” value in data set [4] (3 mg/kg p.o.) amounted to 6.8%; in data set [4] (setting [7]), 8.5%; in data set [4] (30 mg/kg p.o.), 23%. Moreover, the results for the IC50 in data set [5] (setting [8]), in data set [5] (setting [9]) and in data set [6] were 1.3 µM, more than 10 µM and 4900 nM, respectively.

For `CC(=O)Nc1cccc(Nc2ncnc(N3CCC(OCc4ccccc4)CC3)n2)c1` [Compound H, N-(3-((4-(4-(benzyloxy)-1-piperidinyl)-1,3,5-triazin-2-yl)amino)phenyl)acetamide], in data set [2], the Analgesic efficacy entry was “No” and the “Reduction in formalin flinching” value was “did not achieve statistically significant reversals in formalin flinching”.

For the compound `CC(=O)Nc1cccc(Nc2ncnc(N3CCC(Oc4ccc(Cl)c(F)c4)CC3)n2)c1C` [Compound G, N-(3-((4-(4-(4-chloro-3-fluorophenoxy)-1-piperidinyl)-1,3,5-triazin-2-yl)amino)-2-methylphenyl)acetamide], the free fraction (fraction unbound) in data set [1] was 0.006. The Analgesic efficacy entry in data set [2] is listed as “No”. Moreover, the “Reduction in formalin flinching” value in data set [2] is “did not achieve statistically significant reversals in formalin flinching”. Moreover, in data set [3] (rat), the partition ratio (Kp) came out at 0.09. Further, the values for the IC50 in data set [5] (setting [8]), in data set [5] (setting [9]) and in data set [6] were 0.3 µM, 6.6 µM and 800 nM, respectively.

Regarding `CC(=O)Nc1cccc(Nc2ncnc(N3CCC(OCc4ccc(F)c(F)c4)CC3)n2)c1C` [Compound D, N-(3-((4-(4-((3,4-difluorobenzyl)oxy)-1-piperidinyl)-1,3,5-triazin-2-yl)amino)-2-methylphenyl)acetamide], in data set [1], the unbound share (fraction unbound) was 0.067. For the same compound, the “Decrease in formalin flinching” value came out at 36% in data set [2] (10 mg/kg p.o.), 62% in data set [2] (30 mg/kg p.o.) and 83% in data set [2] (60 mg/kg p.o.). Besides, the Analgesic efficacy result in data set [2] is listed as “Yes”. Further, in data set [2], the “Reduction in formalin flinching” value was “statistically significant and plasma concentration-dependent reduction in formalin flinching”. Further, the Kp in data set [3] (rat) was found to be 0.19. Besides, the “Effective [plasma]” value in data set [3] is 1.27 µM. For the same compound, the “Increase in basic movement (in parentheses in the column Decrease in basic movement)” value in data set [4] (10 mg/kg p.o., value in parentheses corresponds to a measured increase) was “(1.4%)”. Moreover, the figures for the “Decrease in basic movement” value in data set [4] (30 mg/kg p.o.) and in data set [4] (60 mg/kg p.o.) were 28% and 50%, respectively. Also, the IC50 in data set [5] (setting [8]) is 0.6 µM; in data set [5] (setting [9]), more than 10 µM; in data set [6], 1700 nM.
